Where two headings read alike, the source gives them in different places.
How the values were obtained:
[1] = test system: mushroom tyrosinase; assay: Mushroom tyrosinase inhibition assay; format: biochemical; conditions: for IC50: mean ± SEM of three experiments
Protocol: As mushroom tyrosinase is commercially available and relatively cheap, it is used as a tool for the identification of novel tyrosinase inhibitors. Here, we examined the tyrosinase inhibitory activities of the 14 BABT derivatives against mushroom tyrosinase in the presence of L-tyrosine or L-dopa as substrates.
Mushroom tyrosinase inhibitory activities of BABT derivatives were determined as described previously, with minor modifications. L-Tyrosine and L-dopa were used as substrates to evaluate the enzyme activity. […] Assay mixtures were incubated at 37 °C for 30 min, and dopachrome amounts synthesized were determined by measuring the optical density of each well at 475 nm using a microplate reader (VersaMax; Molecular Devices, Sunnyvale, CA, USA).

[2] = ABTS radical scavenging assay; conditions: test samples 100 µM; 2 min in the dark
Protocol: An antioxidant assay using ABTS is also commonly used to assess the antioxidant activities of compounds. Donation of one electron from ABTS to potassium persulfate generates the ABTS radical cation. An ABTS radical scavenging activity assay was performed using 100 µM of BABT derivatives or Trolox (a positive reference control) by mixing test samples with ABTS radical cations obtained from a reaction of potassium persulfate and ABTS. ABTS radical scavenging activity was assessed by measuring the optical density at 734 nm after leaving the test sample–ABTS radical cation mixture in the dark for 2 min.
According to a previously described method, with minor modifications, the ABTS radical scavenging activities of BABT derivatives 1–14 were assessed. Briefly, an ABTS radical solution was prepared by mixing 10 mL of aqueous ABTS solution (7 mM) with 10 mL of potassium persulfate aqueous solution (2.45 mM), and the mixture was kept for 11–15 h in the dark at room temperature until the absorbance remained constant. Prior to the antioxidant assay experiments, the ABTS radical solution was diluted with water to adjust the absorbance at 734 nm to 0.70 ± 0.02. A 10 µL aliquot of BABT derivatives or Trolox at a concentration of 1000 µM was added to 90 µL of ABTS+ free radical solution in each well of a 96-well plate and incubated for 2 min in the dark at ambient temperature. The absorbance of each well was measured at 734 nm using a microplate reader (VersaMax; Molecular Devices). The ABTS+ radical scavenging activities of BABT derivatives were compared to those of Trolox. All experiments were carried out independently, thrice.

[3] = test system: tyrosinase; assay: Western blotting of tyrosinase protein expression; format: cell-based, murine
Protocol: We investigated whether, in addition to the direct inhibition of tyrosinase, another inhibitory mechanism of melanogenesis by derivative 8 may be related to the expression of proteins involved in melanogenesis. For the Western blotting experiment, B16F10 cells were treated with α-MSH (1 µM) plus IBMX (200 µM), leading to a 1.7- and 4.9-fold increase in expression levels of melanogenesis-associated proteins tyrosinase and MITF, compared to those in the untreated control (100%) (Figure 13).
B16F10 cells were seeded in a 60 mm dish at a density of 5 × 10^5 cells/mL for 24 h, washed with cold PBS, and harvested. Cytosolic and nuclear fractions of cell lysates were extracted using lysis buffer, as described previously. Protein concentrations in the cell lysates were estimated using the BCA protein assay (Pierce, Rockford, IL, USA). […] The membranes were washed and protein bands detected using the SuperSignal West Pico Chemiluminescence assay kit (Advansta, San Jose, CA, USA) and the Davinch–Chem program (Davinch-K, Seoul, Republic of Korea). Immunoblotting data were quantified using CS Analyzer 3.2 (Densitograph) image analysis software (http://www.attokorea.co.kr, accessed on 21 November 2022).

[4] = test system: B16F10 cells; assay: Measurement of extracellular and intracellular melanin levels; format: cell-based, murine; conditions: α-MSH plus IBMX stimulated B16F10 cells, 72 h
Protocol: To investigate the effects of derivative 8 on extracellular and intracellular melanin levels in B16F10 cells, the cells were treated with various concentrations (5, 10, and 20 µM) of derivative 8 for 1 h, in addition to co-treatment with α-MSH (0.5 µM) and 3-isobutyl-1-methylxanthine (IBMX; 200 µM) to enhance melanin biosynthesis in B16F10 cells. After 72 h of incubation, the effects of 8 on extracellular and intracellular melanin levels were determined by measuring the melanin absorbance in the culture media and cell lysates, respectively, at 405 nm using a microplate reader.
The effect of 8 on melanin production was measured using a standard melanin content assay, with minor modifications. Briefly, B16F10 cells were seeded at a density of 1 × 10^5 cells per well and allowed to adhere to the well bottoms for 24 h under the conditions used for cell cultures. […] After incubation for 72 h at 37 °C in a 5% CO2 atmosphere, melanin levels were determined. To measure the extracellular melanin levels, the absorbance of each well of the culture medium was measured at 405 nm. […] Cultured cells were washed twice with PBS, and the pellets obtained were dissolved using 1 N NaOH solution (200 µL, 10% DMSO) at 60 °C for 1 h. Cell lysates were transferred to the wells of a 96-well plate, and the optical density of melanin dissolved in each well was measured at 405 nm in aqueous DMSO solution using a microplate reader (VersaMax; Molecular Devices).

- fold higher IC50 value with L-dopa than with L-tyrosine ([1]; L-dopa versus L-tyrosine as substrate): 4 fold
- IC50 ([1]; substrate L-dopa, read-out: IC50 (µM) L-Dopa): 1.04 ± 0.05 µM
- fold more potent than kojic acid ([1]; substrate L-tyrosine): 106 fold
- IC50 ([1]; substrate L-tyrosine, read-out: IC50 (µM) L-Tyrosine): 0.27 ± 0.03 µM
SMILES: O=C1N=C(NCc2ccccc2)S/C1=C\c1ccc(O)cc1O [Compound 8, (Z)-2-(benzylamino)-5-(2,4-dihydroxybenzylidene)thiazol-4(5H)-one]
- ABTS radical scavenging activity, % inhibition [2]: 96%
- relative expression level of tyrosinase protein ([3]; 10 µM, α-MSH plus IBMX treated B16F10 cells): lowered the protein expression to the same or lower control levels
- relative expression level of tyrosinase protein ([3]; 5, 10 and 20 µM, α-MSH (1 µM) plus IBMX (200 µM) treated B16F10 cells): significantly reduced the relative expression levels of tyrosinase and MITF in a dose-dependent manner
- extracellular melanin levels compared to untreated control ([4]; 5 µM): 1.22 fold
- intracellular melanin levels (in words) ([4]; 5 µM): more potent inhibitory activity on melanin production than kojic acid at 20 µM
- extracellular melanin levels compared to untreated control ([4]; 10 µM): 1.03 fold
- extracellular melanin levels compared to untreated control ([4]; 20 µM): 1.00 fold
- intracellular melanin levels (in words) ([4]; 20 µM): lower than those in the untreated control
